Assay [1] concerns alcA promoter of A. nidulans. Conditions: pRM alcA, induction with ethanol. How it is done: To test the different inducer concentrations the strains were harvested by filtration and aliquots were transferred to fresh media containing the different inducer concentrations and additionally grown for 8 hours. At the end mycelium was harvested by filtration and frozen in liquid nitrogen. For time curve experiments the strains were harvested and additionally grown for 24 hours and after 2, 4, 6, 8 and 24 hours samples were taken and frozen in liquid nitrogen. […] An equal amount of fungal cell mass has been transferred to fresh medium and aliquots have been subjected to induction by the agonists. After sampling at desired time points the wet cell pellet has been processed as described.
NaPO4 buffer and glasbeads (0.75-1.0 mm) were added to the frozen mycelia and cells were destroyed by the use of the Hybaid RiboLyser. Cell debris was separated by centrifugation and the supernatant was used for enzyme assays Protein concentration was determined using the BCA assay of Pierce and the specific β-galactosidase activity was determined by the use of the protocol of Invitrogen.
β-gal activity in each pERE constructs were assayed after induction with 1 nM DES. The alcA expression was also assayed for comparison.

For assay [2], the system named is A. nidulans. The assay can be described thus: Growth test on plates at different ligand concentrations. The class given is cell-based, Aspergillus nidulans. The procedure:
Induction of estrogen receptor expression via the addition of […], 100 nM, and 1 μM of DES inducer to media plates harboring the Xgal substrate for LacZ in the transformed strain: A. nidulans argB2, riboA1, pyrG 89, pyroA4. FIG. 6. […] Activation of the reporter construct at 1 nM DES was shown in the transformed fungi.

The structures appear in SMILES notation. Like-named read-outs stand apart in the source and are kept apart here.

In turn, `CCO` [ethanol] returned an Inducibility in assay [1] (24 h level over time 0 level) of 16.23. Besides, the β-gal activity in assay [1] (time 2 hours) was determined as 506.66 units per mg protein; in assay [1] (time 4 hours) it was 714.43 units per mg protein; in assay [1] (time 6 hours), 1327.44 units per mg protein; in assay [1] (time 8 hours), 1431.02 units per mg protein; in assay [1] (time 24 hours) it was 6082.59 units per mg protein.
Take `CC/C(=C(/CC)c1ccc(O)cc1)c1ccc(O)cc1` [DES, diethylstilbestrol]: the “growth of strains transformed with reporter constructs” value in assay [2] (strains transformed with reporter constructs, 100 nM DES) was “strong growth inhibition”. In addition, in assay [2] (strains transformed with the hER, 1 nM DES), the “growth of strains transformed with the hER” value is “Growth inhibition”. For the same molecule, in assay [2] (wild type strain, DES concentrations up to 20 μM), the “effect on growth of a wild type strain” value is reported as “do not affect the growth”.

The values are drawn from patent US20070077642A1, “Steroid receptor modulation of gene expression” (priority 2002, published 2007).
